Patent US20150017093A1, “RADIOLABELED BILE ACIDS AND BILE ACID DERIVATIVES” (Aarhus Universitet, priority 2012, published 2015)
“Also recorded” adds a separate entry of the source.

Assays:
[1] = system: transhepatic transport of ^11C—CSar; conditions: Pig 1
Protocol: Pigs 1 and 2 underwent 90-min dynamic PET/CT recordings (list-mode) using intravenous administration of 400 MBq ^11C—CSar. […] In Pig 2, a second ^11C—CSar administration was given to determine the biodistribution of the tracer by means of whole-body PET/CT recordings. In both pigs, at least 6 half-lives of the ^11C-isotope (half-live: 20.4 min) were allowed to pass between tracer administrations.
The decay-corrected dynamic PET data were reconstructed using the iterative TrueX algorithm (3 iterations, 21 subsets) and post-filtered using a 3 mm Gaussian filter yielding 3D-images of 168×168×109 voxels. Time-activity curves (TACs) were generated from volumes of interest (VOIs) drawn in liver tissue, intrahepatic bile ducts, and choledochus using fused PET/CT images.

[2] = Stability of the tracer in its final formulation; type: physicochemical; conditions: up to 2.5 h after the end of the synthesis
Protocol: The three-step radiosynthesis provided 0.56-1.09 GBq of ^11C—CSar (5) with a radiochemical yield of 13±3% (mean±SD; n=7, decay-corrected) and with radiochemical purity >99% within 40 min. The radiochemical yield of the intermediate ^11C-cholylsarcosine methyl ester 4 was approximately 20% and the deprotection proceeded with full conversion to give ^11C—CSar exclusively.

[3] = Dynamic PET/CT with arterial blood sampling after intravenous ^11C—CSar in pigs; type: in vivo, pig
Protocol: Three pigs (3-month old female Danish Landrace and Yorkshire cross-breed; body weight 35-40 kg) were fasted for 18 h with free access to water. Each animal was premedicated with midazolam and s-ketamine, anaesthetized with a mixture of midazolam, s-ketamine and propofol, and mechanically ventilated as previously described (Sørensen M. Munk O L, Mortensen F V, et al. Hepatic uptake and metabolism of galactose can be quantified in vivo by 2-[^18F]fluoro-2-deoxy-galactose positron emission tomography. Am J Physiol Gastrointest Liver Physiol. 2008; 295:G27-G36). The animal was placed on a thermostatically-controlled heating blanket, keeping the rectal temperature 38.5-39.5° C. By adjusting the mechanical respiration, arterial blood pCO2, pO2, and pH were kept between 5.3-7.2 kPa, 12-25 kPa, and 7.35-7.45, respectively. Blood glucose was 5.0-6.7 mM. Catheters (Cordis) were inserted into the femoral vein and artery for intravenous administrations and blood sampling, respectively. After completion of the experiment, the animal was euthanized with an overdose of pentobarbital (100 mg/kg).
For PET/CT studies, the pig was placed on the back in a Siemens Biograph 64 Truepoint PET/CT camera with a 21 cm transaxial PET field-of-view. A CT scan (250 effective mAs with CAREDose4D, 120 kV, pitch 1.0, slice thickness 2.0 mm) was performed for definition of anatomical structures and attenuation correction of the PET recordings.
During the dynamic PET recordings of Pig 1 and 2, blood samples (0.5 mL) were collected from the femoral artery at 12×5, 6×10, 6×30, 5×60, 8×600 seconds. The radioactivity concentrations in the samples were measured in a well counter (Packard Biosciences) that was cross-calibrated to the PET camera. Additional blood samples were collected 2, 5, 10, 20, 40, 60, and 90 min after tracer administration for determination of ^11C-metabolites in plasma.

[4] = Whole-body PET/CT biodistribution and dosimetry (OLINDA/EXM), Pig 2; type: in vivo; conditions: for Absorbed dose estimate / Effective dose: Pig 2 (40 kg) extrapolated to 74-kg human; for Effective dose: ICRP 60
Protocol: For the biodistribution study, ^11C—CSar was administrated intravenously in Pig 2 followed by five whole-body PET scans with one minute between scans and with progressive increase of scan durations per bed-position, i.e. 1, 2, 3, 4 and 5 min, respectively. […] Other source organs (gallbladder, stomach, small intestines, and kidneys) had non-uniform radioactivity distribution and for these organs, the total activity was estimated using a large VOI encompassing all accumulated radioactivity. For each source organ, the time course of the non-decay-corrected total radioactivity was generated. Data were extrapolated from pig (40 kg) to human (74 kg) and recalculated into time courses of fractions of injected dose (% ID). Residence times were computed as the trapezoidal sum of the time course of % ID assuming that the radioactivity decayed only by physical decay after the last scan. Residence time for the rest of the body was calculated as the total body residence time (without voiding) minus the sum of the residence times from the source organs. The residence times were entered into OLINDA/EXM 1.0 (Stabin M G, Sparks R B, Crowe E. OLINDA/EXM: The second-generation personal computer software for internal dose assessment in nuclear medicine. J Nucl Med. 2005; 46:1023-1027) to compute absorbed doses using the male reference phantom and to obtain effective dose values according to ICRP 60.

[5] = Dynamic ^11C—CSar PET/CT in patients with cholestasis; type: in vivo, human; conditions: patient with BRIC-1 cholestasis; intravenous infusion
Excerpt: Two dynamic PET/CT studies in humans have been performed; one in a patient with inherited cholestasis and the other in a patient with drug-induced cholestasis. FIG. 4 illustrates the findings in the patient with inherited cholestasis; a person diagnosed with BRIC-1 (benign recurrent intrahepatic cholestasis), who was examined during a cholestatic episode with severe pruritus, hyperbilirubinemia and high plasma bile acid concentrations. […] Images from the second patient show similar changes.

[6] = Plasma free fraction by ultrafiltration; type: in vitro ADME; conditions: female, Danish Landrace and Yorkshire cross-breed, pig
Protocol: The plasma free fraction of ^11C—CSar was determined in plasma samples collected prior to tracer administration in all three pigs; moreover, plasma was collected 10 seconds after end of cholyltaurine infusion in Pig 1, i.e. before the ^11C—CSar administration. The plasma samples were mixed with aliquots of ^11C—CSar, pipetted into ultrafiltration units (Pall Nanosep Centrifugal Device, Cut-off 30,000 D, Sigma-Aldrich) and centrifuged at room temperature (10 min at 12,000 rpm). Radioactivity in plasma and ultrafiltrates were counted in the well counter. Filter retention of the tracer was determined using sodium phosphate buffer solution (35 mM; pH 7.2). The free fraction was calculated as the ratio of radioactivity concentration in the ultrafiltrate corrected for filter retention to the total radioactivity concentration in plasma.

[7] = cited from earlier work
[8] = cholyltaurine pretreatment vs. without

Compound: cholyltaurine [reference compound]
- effect on hepatic uptake and biliary excretion of ^11C—CSar ([1]; 286 mg/kg intravenous 50-second infusion before tracer): markedly inhibited

Compound: C[C@H](CCC(=O)N([11CH3])CC(=O)O)[C@H]1CC[C@H]2[C@@H]3[C@H](O)C[C@@H]4C[C@H](O)CC[C@]4(C)[C@H]3C[C@H](O)[C@]12C [^11C—CSar, N-(3α,7α,12α-Trihydroxy-24-oxocholan-24-yl)-N—[^11C]methyl-glycine]
- alterations in chemical or radiochemical purity [2]: no alterations
- time to peak of liver TAC ([3]; Pig 1 and 2, after intravenous tracer): ≤ 3 min
- uptake into liver tissue ([3]; Pig 1 and 2, intravenous, dynamic PET/CT): rapid uptake
- time of appearance of radioactivity in the intrahepatic bile ducts ([3]; after ^11C—CSar administration): approximately one
- time at which radioactivity in liver tissue and bile ducts increased again (enterohepatic circulation) ([3]; after administration of the tracer): about 75 min
- time to peak radioactivity concentration in the choledochus ([3]; after tracer administration): 4 to 6 min
- time for liver TAC to decrease to very low concentrations ([3]; pig, in vivo): 30 to 40 min
- time of appearance of radioactivity in the choledochus ([3]; relative to appearance in intrahepatic bile ducts): one minute later
- peak radioactivity concentration of liver TAC ([3]; relative to arterial TAC): comparable to the peak concentration of the arterial TAC
- Absorbed dose estimate ([4]; Adrenals): 2.88 μGy/MBq
- Absorbed dose estimate ([4]; Bone surface): 2.87 μGy/MBq
- Absorbed dose estimate ([4]; Brain): 1.57 μGy/MBq
- Absorbed dose estimate ([4]; Breasts): 1.66 μGy/MBq
- Absorbed dose estimate ([4]; Gallbladder wall): 59.40 μGy/MBq
- Absorbed dose estimate ([4]; Heart wall): 2.33 μGy/MBq
- Effective dose [4]: 4.4 μSv/MBq
- Effective dose ([4]; listed as 11C-CSar): 4.40 μSv/MBq
- Absorbed dose estimate ([4]; Kidneys): 2.34 μGy/MBq
- Absorbed dose estimate ([4]; Liver): 10.80 μGy/MBq
- Absorbed dose estimate ([4]; Lower large intestine wall): 3.91 μGy/MBq
- Absorbed dose estimate ([4]; Lungs): 2.06 μGy/MBq
- Absorbed dose estimate ([4]; Muscle): 2.23 μGy/MBq
- Absorbed dose estimate ([4]; Ovaries): 4.97 μGy/MBq
- Absorbed dose estimate ([4]; Pancreas): 3.36 μGy/MBq
- organs with high accumulation of tracer relative to surrounding tissue ([4]; Pig 2, whole-body PET scans): liver, gallbladder, stomach, and small intestines
- radioactivity in other organs, including the urinary bladder ([4]; Pig 2, whole-body PET scans): Virtually no radioactivity was detected
- Absorbed dose estimate ([4]; Red marrow): 2.34 μGy/MBq
- Absorbed dose estimate ([4]; Skin): 1.61 μGy/MBq
- Absorbed dose estimate ([4]; Small intestine): 39.30 μGy/MBq
- Absorbed dose estimate ([4]; Spleen): 2.37 μGy/MBq
- Absorbed dose estimate ([4]; Stomach wall): 3.92 μGy/MBq
- Absorbed dose estimate ([4]; Testes): 1.82 μGy/MBq
- Absorbed dose estimate ([4]; Thymus): 1.88 μGy/MBq
- Absorbed dose estimate ([4]; Thyroid): 1.78 μGy/MBq
- Absorbed dose estimate ([4]; Total body): 2.83 μGy/MBq
- Absorbed dose estimate ([4]; Upper large intestine wall): 7.07 μGy/MBq
- Absorbed dose estimate ([4]; Urinary bladder wall): 2.67 μGy/MBq
- Absorbed dose estimate ([4]; Uterus): 4.62 μGy/MBq
- distribution of tracer on PET/CT 5 min after start of infusion [5]: still observed in the liver; also recorded: still ^11C—CSar in the liver
- distribution of tracer on PET/CT 25 min after start of infusion [5]: accumulated in the liver and intrahepatic bile ducts
- fraction unbound ([6]; plasma collected after administration of cholyltaurine (Pig 1)): 1
- fraction unbound ([6]; plasma collected before tracer administration, n=3): 0.18 ± 0.02
- decrease of liver tissue TAC with time [1, 8]: significantly slower
- rate of increase of TAC in the choledochus [1, 8]: much slower rate
- maximum value of choledochus TAC relative to that without pretreatment ([1]; pretreatment with cholyltaurine): 2%
- maximum radioactivity concentration of liver tissue TAC compared to studies without cholyltaurine ([1]; pretreatment with cholyltaurine 286 mg/kg i.v.): approximately 40%

Compound: C[C@H](CCC(=O)N(C)CC(=O)O)[C@H]1CC[C@H]2[C@@H]3[C@H](O)C[C@@H]4C[C@H](O)CC[C@]4(C)[C@H]3C[C@H](O)[C@]12C [CSar, N-methyl-cholylglycine]
- toxicity to humans [7]: non-toxic
- biotransformation during enterohepatic circulation ([7]; humans): without hepatic or intestinal biotransformation
